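Grown in 96-well plates, cells were treated for 48 hours with each compound at five concentrations. Insufficient inhibition: endpoint recorded as highest concentration tested. At the GI50, growth is halved.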 The source made the active and inactive calls. Rule as the data show it: active = GI50 up to about 1.1 µM and inactive = higher.
Columns and labels:
Experiment in all cases: growth of human tumour cells (NCI), 48 h
OVCAR-5 = tested on: OVCAR-5
OVCAR-4 = tested on: OVCAR-4
UACC-62 = tested on: UACC-62
Malme-3M = tested on: Malme-3M
LXFL 529 = tested on: LXFL 529
RXF 393 = tested on: RXF 393
HL-60 = tested on: HL-60
NCI-H522 = tested on: NCI-H522
SR = tested on: SR
CCRF-CEM = tested on: CCRF-CEM
SK-MEL-5 = tested on: SK-MEL-5
NCI-H460 = tested on: NCI-H460
A498 = tested on: A498
A549 = tested on: A549
SF-539 = tested on: SF-539
RPMI-8226 = tested on: RPMI-8226
HT-29 = tested on: HT-29
SK-OV-3 = tested on: SK-OV-3
M19-MEL = tested on: M19-MEL
PC-3 = tested on: PC-3

| Structure (SMILES) | GI50 (OVCAR-5) | GI50 (OVCAR-4) | GI50 (UACC-62) | GI50 (Malme-3M) | GI50 (LXFL 529) | GI50 (RXF 393) | GI50 (HL-60) | GI50 (NCI-H522) | GI50 (SR) | GI50 (CCRF-CEM) | GI50 (SK-MEL-5) | GI50 (NCI-H460) | GI50 (A498) | GI50 (A549) | GI50 (SF-539) | GI50 (RPMI-8226) | GI50 (HT-29) | GI50 (SK-OV-3) | GI50 (M19-MEL) | GI50 (PC-3) |
| --- | --- | --- | --- | --- | --- | --- | --- | --- | --- | --- | --- | --- | --- | --- | --- | --- | --- | --- | --- | --- |
| C/C(CC(=O)Nc1ccc(NC(=O)C/C(C)=N\NC(N)=O)cc1)=N/NC(N)=O | > 100 µM (inactive) | 96.2 µM (inactive) | > 84.9 µM (inactive) | > 100 µM (inactive) | 65.9 µM (inactive) | > 91.4 µM (inactive) | > 61.7 µM (inactive) | > 51.5 µM (inactive) | 38.5 µM (inactive) | > 62.8 µM (inactive) | > 100 µM (inactive) | > 62.4 µM (inactive) | > 100 µM (inactive) | > 100 µM (inactive) | > 100 µM (inactive) | 24.8 µM (inactive) | 96.8 µM (inactive) | > 100 µM (inactive) | > 100 µM (inactive) |  |
| C[N+]1(C)C/C(=C\C=C\c2ccccc2)C(=O)/C(=C/C=C/c2ccccc2)C1 | 24.3 µM (inactive) | 42.7 µM (inactive) | 3.46 µM (inactive) | 16 µM (inactive) | 2.98 µM (inactive) | 21.5 µM (inactive) | 1.02 µM (active) | 3.78 µM (inactive) | 3.1 µM (inactive) | 1.78 µM (inactive) | 6.24 µM (inactive) | 17.1 µM (inactive) | 60.1 µM (inactive) | 39.8 µM (inactive) | 7.55 µM (inactive) | 2.07 µM (inactive) | 9.53 µM (inactive) | 37.7 µM (inactive) | 7.06 µM (inactive) | 10.4 µM (inactive) |
| Cc1ccc2nc(N)[nH]c(=O)c2c1Sc1ccncc1 | 91.2 µM (inactive) | 78.2 µM (inactive) | 7.4 µM (inactive) | > 65.2 µM (inactive) | > 59.7 µM (inactive) | 55.8 µM (inactive) | 10.9 µM (inactive) | 17.8 µM (inactive) | 5.07 µM (inactive) | 5.05 µM (inactive) | 21.2 µM (inactive) | 5.28 µM (inactive) | > 78.9 µM (inactive) | 6.73 µM (inactive) | 4.78 µM (inactive) | 23.3 µM (inactive) | > 100 µM (inactive) | > 30.6 µM (inactive) | > 76 µM (inactive) |  |
| O=C(NC(=O)c1ccccc1[N+](=O)[O-])Nc1ccc(Oc2ncc(Br)cn2)c(Cl)c1 | 0.0207 µM (active) | 0.0284 µM (active) | 0.019 µM (active) | 0.0138 µM (active) | 0.0302 µM (active) | 0.00771 µM (active) | 0.00383 µM (active) | 0.0131 µM (active) | 0.0296 µM (active) | 0.0284 µM (active) | 0.0224 µM (active) | 0.0252 µM (active) | 0.0225 µM (active) | 0.0428 µM (active) | 0.0203 µM (active) | 0.0256 µM (active) | 0.0175 µM (active) | 0.0269 µM (active) | 0.0196 µM (active) | 0.029 µM (active) |
| CCCCCCCCCCCCNC(=S)OCCCC | 31.8 µM (inactive) | > 100 µM (inactive) | > 100 µM (inactive) | > 100 µM (inactive) | > 100 µM (inactive) | > 100 µM (inactive) | 16.4 µM (inactive) | > 100 µM (inactive) | 30.1 µM (inactive) | 29.4 µM (inactive) | 81.3 µM (inactive) | > 100 µM (inactive) | > 100 µM (inactive) | > 100 µM (inactive) | > 100 µM (inactive) | 15.7 µM (inactive) | 72.3 µM (inactive) | > 100 µM (inactive) | 42.2 µM (inactive) |  |
